Values joined by “and” are separate entries in the source; they are usually repeats but may differ in a detail not shown here. Identical values can stand only once.
Legend:
primary AML cells = test: Primary AML cultures ex vivo: cell viability, apoptosis assays and Western analysis of ERK; format: cell-based, human
Text: In addition to protein kinase C and ERK activation, TPA is a known inducer of NF-κB, a pro-survival transcription factor often constitutively active in AML blasts and leukemic stem cells.

[1] = system: pancreatic cancer, non-small-cell lung cancer, nasopharyngeal carcinoma; test: TPA as an adjuvant to traditional neoplasm treatments (patient cases); format: in vivo, human
Method: Patient three was diagnosed with terminal metastasized pancreatic cancer. They received five injections of 0.18 mg TPA (0.125 mg/m^2) per week for 12 weeks in addition to chemotherapy.
Patient nine was diagnosed with non-small-cell lung cancer. The cancer had metastasized and was refractory to Tarceva® (erlotinib) and Iressa™ (gefitinib). The patient was treated with a combination of gemcitabine and cisplatin according to standard protocols accompanied by an injection of 0.19 mg of TPA (0.125 mg/m^2) each weekday for eight weeks. […] They have been in remission since Jun. 30, 2010.
Patient thirteen was diagnosed with terminal nasopharyngeal carcinoma and treated with both chemotherapy and radiotherapy. They received injections of 0.19 mg of TPA (0.125 mg/m^2) of TPA a day for five days prior to beginning radiotherapy and then 0.19 mg of TPA (0.125 mg/m^2) every other day for a total of 20 injections.

S180 cell-injected mice = test: Effect of TPA on peripheral WBC and Hb counts in S180 cell-injected mice; settings: for WBC counts: second day after treatment
Method: Sarcoma 180 (S180) cells were injected into Kwen-Ming mice. On the third day, the mice were given TPA interperitoneally (i.p.). at 50, 100 or 200 μg/kg/day for 7 days. On the second day after the treatment was completed, blood samples were taken from the tails of the treated mice for WBC and Hb analyses.

terminal lung cancer = test: Treatment of lung cancer (patient case); format: in vivo, human; settings: 35 injections, 0.19 to 0.26 mg TPA three to four times a week
Text: Patient ten was diagnosed with terminal lung cancer which was refractory to chemotherapy. The cancer metastasized into their bones leaving them unable to walk.

[2] = Treatment of myasthenia gravis (patient case); format: in vivo, human; settings: 35 injections of TPA, concurrent dexamethasone
Method: Patient eleven, suffered from myasthenia gravis for more than 40 years. They were taking dexamethasone and concurrently and was injected with 1 ampoule containing 0.19 mg of TPA (0.125 mg/m^2) every other day for four weeks, then 0.24 mg of TPA (1.25×0.125 mg/m^2) every other day for 2 weeks, and 0.26 mg of TPA (1.5×0.125 mg/m^2) every other day for an additional 3 weeks for a total of 35 injections of TPA. They no longer need the dexamethasone and is now asymptomatic.

terminal breast cancer = test: Treatment of breast cancer (patient case); format: in vivo, human; settings: 35 injections, 0.18 to 0.26 mg TPA three to four times a week
Text: Patient six was diagnosed with terminal breast cancer. They were unresponsive to either radiation or chemotherapy and the cancer had metastasized into the bone leaving their wheelchair bound.

[3] = system: CD3, CD4 and CD8 levels in peripheral blood; test: Third clinical study of HIV+ patients: CD3, CD4, CD8 by flow cytometry; format: in vivo, human; parameters: unit not given here; settings: one value per patient
Method: Six patients, two males and four females between the ages of 37 and 52 years of age (Patients #13-18), were treated with TPA. Four of these patients previously received TPA treatment in combination with anti-HIV drugs in the two previous clinical studies. The two remaining patients had never been treated with TPA, but had previously received anti-HIV drug regimens. All treatments were stopped three days prior to the initiation of the third clinical study and were not resumed until 60 days after completion of the TPA treatment. The resumption of the standard HIV treatments was required by local health authorities.
(§1) Each patient in the study received 150 μg of TPA in 200 ml of sterile saline by intravenous infusion over a 1.5 to 2 hour period daily for 60 days for a total administered dose of 9.0 mg. Following completion of the 60 days of TPA therapy, these patients remained under observation for an additional 60 days though the received no further treatment.
CD3, CD4 and CD8 levels in peripheral blood were quantitated prior to starting treatment, and again at 30 and 60 days using flow cytometry and the appropriate antibodies obtained from B.D. Bioscience, San Diego, Calif. Viral load was determined using conventional methods at Kuang Ann men Hospital, Beijing, China. Patients RBC, WBC, platelets and hemoglobin levels were also measured.

[4] = Third clinical study of HIV+ patients: periphery blood profile; format: in vivo, human; settings: one value per patient
Method: as §1
CD3, CD4 and CD8 levels in peripheral blood were quantitated prior to starting treatment, and again at 30 and 60 days using flow cytometry and the appropriate antibodies obtained from B.D. Bioscience, San Diego, Calif. Viral load was determined using conventional methods at Kuang Ann men Hospital, Beijing, China. Patients RBC, WBC, platelets and hemoglobin levels were also measured. […]

[5] = Treatment of prostate hypertrophy (patient case); format: in vivo, human
Method: Patient eight, diagnosed with prostate hypertrophy. They were injected with 1 ampoule containing 0.19 mg of TPA (0.125 mg/m^2) every other day for four weeks, then 0.24 mg of TPA (1.25×0.125 mg/m^2) every other day for 2 weeks, and 0.26 mg of TPA (1.5×0.125 mg/m^2) every other day for an additional 3 weeks. Their PSA index is now below 3.0.

[6] = TPA 50 μg/kg/day i.p. for 7 days
[7] = TPA 100 μg/kg/day i.p. for 7 days
[8] = TPA 200 μg/kg/day i.p. for 7 days

CCCCCCCCCCCCCC(=O)O[C@@H]1[C@@H](C)[C@@]2(O)[C@@H](C=C(CO)C[C@]3(O)C(=O)C(C)=C[C@@H]23)[C@@H]2C(C)(C)[C@]12OC(C)=O [TPA, 12-O-tetradecanoylphorbol-13-acetate]
cytotoxic effect (cell viability and apoptosis assays) (primary AML cells; AML cases): direct therapeutic cytotoxic effects in at least a subset of AML cases
phospho-ERK pro-survival signal (primary AML cells; after 24 hour ex vivo exposure): loss of the phospho-ERK pro-survival signal
ERK phosphorylation (Western analysis) (primary AML cells; all primary cultures analyzed, by 1 hour in culture): strongly induced ERK phosphorylation
tumor in the pancreas ([1]; five injections of 0.18 mg TPA per week for 12 weeks in addition to chemotherapy, from 6.3 cm): 2.4 cm
skin damage from radiation treatment ([1]; nasopharyngeal carcinoma patient): did not suffer any apparent skin damage
remission ([1]; nasopharyngeal carcinoma patient, chemotherapy and radiotherapy plus 20 injections of 0.19 mg TPA): in remission for two and a half years
side effects of chemotherapy ([1]; non-small-cell lung cancer patient, gemcitabine and cisplatin plus 0.19 mg TPA each weekday for eight weeks): did not lose any hair and had significantly less nausea
remission ([1]; non-small-cell lung cancer patient, gemcitabine and cisplatin plus TPA): in remission since Jun. 30, 2010
side effects of chemotherapy ([1]; pancreatic cancer patient, TPA in addition to chemotherapy): significantly less vomiting and nausea than in prior chemotherapy treatments without TPA
Hb (S180 cell-injected mice; [6]): 136 ± 11 g/L
WBC counts (S180 cell-injected mice; [6]): 16.1±7.4 ×10^9/L
Hb (S180 cell-injected mice; [7]): 149 ± 12 g/L
WBC counts (S180 cell-injected mice; [7]): 18.7±3.0 ×10^9/L
Hb (S180 cell-injected mice; [8]): 149 ± 10 g/L
WBC counts (S180 cell-injected mice; [8]): 20.7±3.4 ×10^9/L
outcome, terminal lung cancer metastasized into bones (terminal lung cancer): in remission and able to walk normally
myasthenia gravis symptoms [2]: asymptomatic
outcome, terminal breast cancer metastasized into the bone (terminal breast cancer): in remission and able to walk normally
CD3 ([3]; Sixty Days After TPA): 902 and 2099 and 1305 and 317 and 579 and 2689
CD4 ([3]; Sixty Days After TPA): 369 and 11 and 46 and 31 and 165 and 721
CD8 ([3]; Sixty Days After TPA): 485 and 1507 and 1220 and 246 and 290 and 1897
CD3 ([3]; Thirty Days After TPA, 150 μg i.v. daily for 60 days): 1522 and 1865 and 1477 and 594 and 703 and 2771
CD4 ([3]; Thirty Days After TPA): 613 and 8 and 105 and 112 and 229 and 735
CD8 ([3]; Thirty Days After TPA): 796 and 1408 and 1318 and 424 and 343 and 1938
PLt ([4]; Fifteen Days After TPA): 1.69e+11 L⁻¹ and 2.19e+11 L⁻¹ and 4.15e+11 L⁻¹ and 1.51e+11 L⁻¹ and 2.08e+11 L⁻¹ and 2.4e+11 L⁻¹
RBC ([4]; Fifteen Days After TPA): 4.03e+12 L⁻¹ and 3.41e+12 L⁻¹ and 3.65e+12 L⁻¹ and 2.98e+12 L⁻¹ and 3.69e+12 L⁻¹ and 3.88e+12 L⁻¹
Rb ([4]; Fifteen Days After TPA): 114 g/L and 101 g/L and 142 g/L and 118 g/L and 141 g/L and 140 g/L
WBC ([4]; Fifteen Days After TPA): 4.1 ×10^9/L and 5 ×10^9/L and 8.1 ×10^9/L (2×) and 6.4 ×10^9/L and 9 ×10^9/L
PLt ([4]; Forty Days After TPA): 3.04e+11 L⁻¹ and 1.52e+11 L⁻¹ and 2.62e+11 L⁻¹ and 2.91e+11 L⁻¹ and 1.31e+11 L⁻¹ and 1.49e+11 L⁻¹
RBC ([4]; Forty Days After TPA): 3.9e+12 L⁻¹ and 4.44e+12 L⁻¹ and 4.13e+12 L⁻¹ and 3.86e+12 L⁻¹ and 3.49e+12 L⁻¹ and 4.14e+12 L⁻¹
Rb ([4]; Forty Days After TPA): 125 g/L and 109 g/L and 110 g/L and 124 g/L and 116 g/L and 131 g/L
WBC ([4]; Forty Days After TPA): 4.6 ×10^9/L (2×) and 3.9 ×10^9/L (2×) and 6.2 ×10^9/L and 4.9 ×10^9/L
PLt ([4]; Sixty Days After TPA): 2.21e+11 L⁻¹ and 2.27e+11 L⁻¹ and 2.39e+11 L⁻¹ and 2.76e+11 L⁻¹ and 1.21e+11 L⁻¹ and 2.22e+11 L⁻¹
RBC ([4]; Sixty Days After TPA): 4.55e+12 L⁻¹ and 4.31e+12 L⁻¹ and 4.04e+12 L⁻¹ and 4.1e+12 L⁻¹ and 3.34e+12 L⁻¹ and 4.56e+12 L⁻¹
Rb ([4]; Sixty Days After TPA): 126 g/L and 96 g/L and 99 g/L (2×) and 123 g/L and 136 g/L
WBC ([4]; Sixty Days After TPA): 8.8e+09 L⁻¹ and 4.4e+09 L⁻¹ and 6.2e+09 L⁻¹ and 5.1e+09 L⁻¹ and 7.7e+09 L⁻¹ and 3.5e+09 L⁻¹
PLt ([4]; Thirty Days After Stopping TPA): 2.72e+11 L⁻¹ and 1.93e+11 L⁻¹ and 2.78e+11 L⁻¹ and 2.24e+11 L⁻¹ and 1.78e+11 L⁻¹
RBC ([4]; Thirty Days After Stopping TPA): 4.55e+12 L⁻¹ and 4.4e+12 L⁻¹ and 3.9e+12 L⁻¹ and 4.71e+12 L⁻¹ and 3.42e+12 L⁻¹
Rb ([4]; Thirty Days After Stopping TPA): 130 g/L and 104 g/L and 110 g/L and 144 g/L and 100 g/L
WBC ([4]; Thirty Days After Stopping TPA): 7.5e+09 L⁻¹ and 6.5e+09 L⁻¹ and 8.4e+09 L⁻¹ and 3.8e+09 L⁻¹ and 4.8e+09 L⁻¹
PLt ([4]; Thirty Days After TPA): 2.32e+11 L⁻¹ and 2.47e+11 L⁻¹ and 3.45e+11 L⁻¹ and 1.77e+11 L⁻¹ and 2.28e+11 L⁻¹ and 2.75e+11 L⁻¹
RBC ([4]; Thirty Days After TPA): 4.48e+12 L⁻¹ and 3.83e+12 L⁻¹ and 4.03e+12 L⁻¹ and 3.2e+12 L⁻¹ and 4.32e+12 L⁻¹ and 4.35e+12 L⁻¹
Rb ([4]; Thirty Days After TPA): 116 g/L and 113 g/L and 145 g/L and 121 g/L and 154 g/L and 148 g/L
WBC ([4]; Thirty Days After TPA): 5.9e+09 L⁻¹ and 5.2e+09 L⁻¹ and 4.3e+09 L⁻¹ and 4e+09 L⁻¹ and 4.5e+09 L⁻¹ and 8.9e+09 L⁻¹
PSA index ([5]; 0.19, 0.24, 0.26 mg TPA every other day over 9 weeks): below 3.0
appearance ([5]; same patient): developed a more youthful appearance
